These results are taken from patent publication US4391978A, “Phenyl-quinolizidines” (Hoffmann-La Roche Inc., priority 1980, dated 1983).

Molecules are shown by their SMILES. Counter-ions that a name gives are not always drawn. Like-named read-outs stand apart in the source and are kept apart here. Bounds are passed on as bounds.

Experiment [1] addresses T1, receptor, calf striatum ([^3 H]-spiroperidol) (Bos taurus, UniProt P20288).
T1 construct: calf striatum was used as the receptor; from tissue; host or cells: calf striatum
Nature of the experiment: Spiroperidol-Binding Test (in vitro).

Experiment [2] concerns rats trained to jump up on a vertical isolated pole. Nature of the experiment: Pole Climbing Test (rat): inhibition of conditioned (BCR) and unconditioned (BUR) reaction. In kind it is in vivo. The settings on record: ip; for ED50: inhibition of conditioned reaction in 50% of the animals, observation time 6 hours; for ED10: inhibition of unconditioned reaction, ED10, i.p. How it is done:
"Pole Climbing" Test (rat)
For this experimental procedure there was used per dosage a group of 10 rats trained to jump up on a vertical isolated pole in the experimental cage, to escape an electroshock (unconditioned stimulus) produced via the lattice floor immediately after an acoustic signal (conditioned stimulus). The inhibition of the conditioned reaction in the case of 50% of the animals during an observation time of 6 hours is determined by the parameter ED 50 BCR, the inhibition of the unconditioned reaction is determined by the parameter ED 10 BUR.

Experiment [3] concerns apomorphine-induced vomiting (dog). Nature of the experiment: Antiemetic Activity (dog): apomorphine-induced vomiting. Format: in vivo, dog (Beagle hounds). Particulars: Canis lupus familiaris, po, 1 hour before apomorphine hydrochloride 0.1 or 0.3 mg/kg s.c., 50% of animals protected, read-out: Anti-apomorphine emesis ED50 p.o.
Where [4] appears, read: 50% detachment of specific binding of [^3 H]-spiroperidol, calf striatum, in vitro, read-out: Spiroperidol-Binding IC50.

T1 sequence (P20288 whole entry): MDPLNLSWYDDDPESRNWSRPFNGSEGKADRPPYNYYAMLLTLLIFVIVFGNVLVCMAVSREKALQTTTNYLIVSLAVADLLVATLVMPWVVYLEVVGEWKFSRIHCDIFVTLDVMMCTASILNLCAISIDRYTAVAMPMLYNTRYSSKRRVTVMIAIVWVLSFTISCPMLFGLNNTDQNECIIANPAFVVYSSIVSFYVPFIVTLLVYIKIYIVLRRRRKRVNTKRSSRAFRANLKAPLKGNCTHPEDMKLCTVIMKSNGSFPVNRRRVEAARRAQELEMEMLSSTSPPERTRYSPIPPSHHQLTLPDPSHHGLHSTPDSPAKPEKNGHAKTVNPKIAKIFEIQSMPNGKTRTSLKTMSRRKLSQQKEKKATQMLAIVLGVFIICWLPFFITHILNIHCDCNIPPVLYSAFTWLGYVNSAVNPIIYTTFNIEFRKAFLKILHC

A word on the IC50: it is the midpoint of a concentration-inhibition curve. For orientation: ED50 means the dose at which the effect has come halfway, by size or by number of responders. In turn, `O=c1[nH]c2cc(I)ccc2n1[C@@H]1CCN2C[C@@H](c3ccccc3F)CC[C@@H]2C1` (relative stereo) [rac-1-[(9aβH)-7β-(o-fluorophenyl)-octahydro-2H-quinolizin-2α-yl]-5-iodo-2-benzimidazolinone] yielded a concentration for half-maximal inhibition (IC50) in experiment [1] of 8.6 nM. In experiment [2], this molecule yielded an ED50 of 0.1 mg/kg and an ED10 of 0.055 mg/kg.
In experiment [1], `O=c1[nH]c2cc(Br)ccc2n1[C@@H]1CCN2C[C@@H](c3ccccc3F)CC[C@@H]2C1` (relative stereo) [rac-1-[(9aβH)--7β-(o-Fluorophenyl)-octahydro-2H--quinolizin-2α-yl]-5-bromo-2-benzimidazolinone.HCl] came in with a half-maximal inhibitory concentration (IC50) of 3.8 nM. Moreover, in experiment [2], the 50% effect level (ED50) was put at a dose of 0.08 mg/kg and the ED10 is 0.1 mg/kg.
For `N#Cc1ccc2c(c1)[nH]c(=O)n2[C@@H]1CCN2C[C@@H](c3ccccc3F)CC[C@@H]2C1` (relative stereo) [rac-1-[(9aβH)--7β-(o-Fluorophenyl)-octahydro-2H--quinolizin-2α-yl]-5-cyano-2-benzimidazolinone.HCl], in that order: 50 nM, 0.65 mg/kg and 1 mg/kg.
In the case of `COc1cc(N)c(Cl)cc1C(=O)N[C@@H]1CCN2C[C@@H](c3ccccc3Cl)CC[C@@H]2C1` (relative stereo) [rac-4-amino-5-chloro-N-[(9aβH)-7β-(o-chlorophenyl)-octahydro-2H-quinolizin-2α-yl]-o-anisamide], in experiment [1] (setting [4]), the IC50 was determined as 30 nM. For the same molecule, the ED50 in experiment [3] came out at 2.3 mg/kg; in experiment [2], 12.5 mg/kg. The same molecule displayed an ED10 in experiment [2] of 12.5 mg/kg.
Take `O=C1CCCN1C(=O)N[C@@H]1CCN2C[C@@H](c3ccccc3Cl)CC[C@@H]2C1` (relative stereo) [rac-N-((9aβH)-7β-(o-chlorophenyl)octahydro-2H-quinolizin-2α-yl)-2-oxo-1-pyrrolidinecarboxamide]: in experiment [2], the median effective dose (ED50) turned out to be 23 mg/kg and the ED10 was > 30 mg/kg.
On to `O=C(N[C@@H]1CCN2C[C@@H](c3ccccc3Cl)CC[C@@H]2C1)c1cccs1` (relative stereo) [rac-N-((9aβH)-7β-(o-chlorophenyl)octahydro-2H-quinolizin-2α-yl)-2-thiophenecarboxamide], for which the half-maximal inhibitory concentration (IC50) in experiment [1] (setting [4]) came out at 123 nM. In experiment [2], this molecule yielded an ED50 of 18 mg/kg and an ED10 of 25 mg/kg.
For `CCS(=O)(=O)c1ccc(OC)c(C(=O)N[C@@H]2CCN3C[C@@H](c4ccccc4Cl)CC[C@@H]3C2)c1` (relative stereo) [rac-N-((9aβH)-7β-(o-chlorophenyl)octahydro-2H-quinolizin-2α-yl)-5-(ethylsulfonyl)-o-anisamide], the IC50 in experiment [1] (setting [4]) came to 135 nM. Besides, the ED50 in experiment [3] was determined as 0.38 mg/kg; in experiment [2], 10 mg/kg. This molecule yielded an ED10 in experiment [2] of 10 mg/kg.
For the molecule `COc1ccc(S(N)(=O)=O)cc1C(=O)N[C@@H]1CCN2C[C@@H](c3ccccc3Cl)CC[C@@H]2C1` (relative stereo) [rac-N-((9aβH)-7β-(o-chlorophenyl)octahydro-2H-quinolizin-2α-yl)-5-sulfamoyl-o-anisamide], the ED50 in experiment [3] was determined as 0.8 mg/kg.
Consider `O=C(N[C@@H]1CCN2C[C@@H](c3ccccc3Cl)CC[C@@H]2C1)c1ccc(F)cc1` (relative stereo) [rac-N-((9aβH)-7β-(o-chlorophenyl)octahydro-2H-quinolizin-2α-yl)-p-fluorobenzamide], for which the IC50 in experiment [1] (setting [4]) was determined as 67 nM. Besides, in experiment [2], the ED50 was 12 mg/kg and the ED10 came to 5.5 mg/kg.
Take `O=C(N[C@@H]1CCN2C[C@@H](c3ccccc3Cl)CC[C@@H]2C1)C1CC1` (relative stereo) [rac-N-[(9aβH)-7β-(o-chlorophenyl)-octahydro-2H-quinolizin-2α-yl]-cyclopropanecarboxamide]: in experiment [1] (setting [4]), the IC50 was 550 nM. In experiment [2], it took a dose of 6 mg/kg to reach the 50% effect level (ED50) and the ED10 worked out at 5.5 mg/kg.
In the same order, the values of `O=C(c1ccc(F)cc1)[C@@H]1CCN2C[C@@H](c3ccccc3Cl)CC[C@@H]2C1` (relative stereo) [rac-[(9aβH)-7β-(o-chlorophenyl)-octahydro-2H-quinolizin-2α-yl]p-fluorophenylketone] are 11 nM, 3 mg/kg and 3 mg/kg.
